According to article PMC12381781, “Structural and functional insights into the selective inhibition of mutant tau aggregation by purpurin and oleocanthal in frontotemporal dementia” (Protein Science : A Publication of the Protein Society, 2025):

Columns and labels:
Assay type in all cases: biochemical
R2R3 (P301L) tau peptide = R2R3 (P301L) tau peptide (Homo sapiens, UniProt P10636, P618L); experiment: ThT aggregation assay of monomeric R2R3 (P301L) peptide; conditions: for ThT-stained aggregates, confocal imaging: R2R3 P301L, end of ThT assay
Method: (§1) The aggregation kinetics of tau peptides were monitored using a ThT assay. A 40 μL reaction mixture containing 15 μM ThT (Sigma‐Aldrich, Cat. # T3516‐5G) and 50 μM peptide in the absence (control) or presence of 0.1 μM, 1 μM, and 10 μM PUR or OLC was prepared on ice in aggregation buffer (20 mM Tris [pH 7.4], 100 mM NaCl, 1 mM ethylenediaminetetraacetic acid [EDTA]) containing 5 μM heparin (Sigma‐Aldrich, Cat. #H4784). dithiothreitol (DTT) was excluded to avoid its differential effects on the aggregation kinetics of tau peptides containing Cys291 or Cys322 and to prevent peroxide generation by redox‐active compounds like PUR, which can lead to oxidative artifacts and false‐positive inhibition signals, as reported in our previous study (Annadurai, Malina, Salmona, et al., [2022]). This mixture was then dispensed into a clear‐bottom, black 384‐well ViewPlate (Revvity, Waltham, MA, United States; Part # 6007460) and sealed with a TopSealA‐PLUS (Revvity) to prevent evaporation.
(§2) Aggregation was monitored using EnSpire Multimode Plate Reader (Revvity) at 37°C with constant agitation (1000 rpm). To minimize condensation, the upper heater temperature was set to 2°C higher than the lower heater temperature. ThT fluorescence (ThT—λ ex: 460–490 nm and λem: 500–550 nm) was recorded every 5–10 min for 48 h.
(§3) ThT fluorescence curves were fitted to a sigmoidal function in GraphPad Prism (version 10, San Diego, CA, USA) using the following equation:
(§4) Y=Top/1+expV50–X/Slope , where Y is the ThT fluorescence intensity, X is time (h), Top is the maximum fluorescence intensity, V50 is the time to reach 50% of Top, and Slope describes the steepness of the aggregation transition. Baseline fluorescence at the start of the measurements was relatively low across samples and was not separately fitted. In samples showing early increases in fluorescence, the aggregation trajectory was modeled directly without introducing an independent baseline parameter.
(§5) The V50 value obtained from each replicate was used as the aggregation t 1/2 for statistical analysis.
(§6) To evaluate the effect of compounds on the extent of aggregation, the AUC was calculated for each replicate ThT fluorescence curve using GraphPad Prism. AUC values were then normalized to the mean AUC of the untreated control group and expressed as “aggregation (% of control),” serving as an indirect and comparative measure of fibril formation.
(§7) Figure S11. Confocal imaging of ThT-stained aggregates formed in the presence of PUR and OLC (corresponding to Figure 3). At the end of the ThT aggregation assay, reaction mixtures containing WT or mutant R2R3 tau peptides (P301L, V287I, N279K), incubated in the absence (CTL) or presence of 10 µM PUR or OLC, were collected from assay wells, embedded in 0.05% low-melting agarose, and imaged. ThT fluorescence was acquired using a Yokogawa Cell Voyager 7000S high-content imaging system equipped with a 20× objective (Ex: 460–490 nm, Em: 500–550 nm) and analyzed with Signals Image Artist (Revvity). […] Scale bar: 20 μm.

R2R3 (N279K) tau peptide = R2R3 (N279K) tau peptide (Homo sapiens, UniProt P10636, N596K); experiment: ThT aggregation assay of monomeric R2R3 (N279K) peptide; conditions: for ThT-stained aggregates, confocal imaging: R2R3 N279K, end of ThT assay
Method: as §1, §2, §3, §4, §5, §6, §7

[1] = target: T1, preformed R2R3 (WT) fibrils (Homo sapiens, UniProt P10636); experiment: Elongation of preformed R2R3 (WT) fibrils, ThT; conditions: R2R3 WT pre-aggregated 24 h, compound 10 μM; for ThT-stained aggregates from post-treatment samples, confocal imaging: further 24 h
T1 construct: Peptides spanning R2R3—including PHF6 and PHF6*; purchased ProteoGenix (Schiltigheim, France); host or cells: chemical synthesis (custom peptide)
Method: Peptides were pre‐aggregated for 24 h with aggregation kinetics monitored by ThT fluorescence, after which 10 μM PUR or OLC was added, followed by an additional 24–30 h of incubation (Figure 4a). Aggregation kinetics was monitored by ThT fluorescence, and elongation was quantified as the AUC following compound addition, normalized to each replicate's maximum pre‐treatment fluorescence (Figure 4b). […] WT peptide fibril elongation was reduced to 15.5 ± 2.8% (PUR) and 45.2 ± 3.2% (OLC), and P301L peptide fibril elongation was limited to 31.8 ± 0.6% (PUR) and 85.6 ± 2.2% (OLC) (Figure 4b). Fluorescence microscopy imaging further confirmed the presence of reduced ThT‐positive aggregates following the addition of PUR and OLC (Figure S12). Similar inhibition trends, with PUR outperforming OLC, were also observed for V287I and N279K peptides (Figure S12).
FIGURE 4 Purpurin (PUR) and oleocanthal (OLC) inhibit elongation of preformed wild‐type (WT) and P301L tau fibrils. (a) The thioflavin T (ThT) fluorescence kinetics of pre‐aggregated R2R3 (WT and P301L) tau peptides treated with PUR or OLC (10 μM). Peptides were first allowed to aggregate for 24 h, followed by compound addition and continued incubation for an additional 24–30 h. Vertical dashed lines indicate the time point of compound addition. Curves are normalized to each replicate's maximum pre‐treatment ThT fluorescence. Source data are provided in the Data Availability Statement section. Mean ± SEM (n ≥ 3). (b) Aggregation levels post‐treatment, expressed as a percentage of control (untreated fibrils), calculated from the area under the curve after compound addition. Mean ± SEM (n ≥ 3). ***p < 0.001, **p < 0.01, one‐way ANOVA (Tukey's post hoc test).
Figure S12. Confocal imaging of ThT-stained aggregates from post-treatment samples in Figure 4. R2R3 (WT and P301L) tau peptides were incubated for 24 h to allow initial aggregation, followed by the addition of PUR or OLC (10 µM). After a further 24 h, reaction mixtures from compound-treated wells were collected, embedded in 0.05% low-melting agarose, and processed for imaging as described in Figure S11. […] Scale bar: 50 μm.

T1 sequence (P10636 592-653 limits assumed): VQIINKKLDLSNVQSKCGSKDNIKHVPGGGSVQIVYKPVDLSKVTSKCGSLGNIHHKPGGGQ
Chain of R2R3 (P301L) tau peptide (P10636 592-653 P618L): as the sequence (P10636 592-653 limits assumed) above, with P27L counted along it
Chain of R2R3 (N279K) tau peptide (P10636 592-653 N596K): as the sequence (P10636 592-653 limits assumed) above, with N5K counted along it

Structure (SMILES) | aggregation (% of control), AUC of ThT fluorescence (R2R3 (P301L) tau peptide; R2R3 P301L 50 μM, compound 0.1 μM) [%] | aggregation (% of control), AUC of ThT fluorescence (R2R3 (P301L) tau peptide; R2R3 P301L 50 μM, compound 10 μM) | ThT-stained aggregates, confocal imaging (R2R3 (P301L) tau peptide; compound 10 μM) | aggregation (% of control), AUC of ThT fluorescence (R2R3 (N279K) tau peptide; R2R3 N279K 50 μM, compound 0.1 μM) [%] | aggregation (% of control), AUC of ThT fluorescence (R2R3 (N279K) tau peptide; R2R3 N279K 50 μM, compound 1 μM) [%] | aggregation, ThT fluorescence (R2R3 (N279K) tau peptide; R2R3 N279K 50 μM, compound 10 μM) | ThT-stained aggregates, confocal imaging (R2R3 (N279K) tau peptide; compound 10 μM) | fibril elongation, aggregation post-treatment as percentage of control (AUC after compound addition) ([1]; further 24–30 h) [%] | ThT-stained aggregates from post-treatment samples, confocal imaging [1] | remaining activity at 0.1 µM (R2R3 (P301L) tau peptide; R2R3 P301L 50 μM, compound 0.1 μM, read-out: aggregation (% of control), AUC of ThT fluorescence) [%] | remaining activity at 10 µM (R2R3 (P301L) tau peptide; R2R3 P301L 50 μM, compound 10 μM, read-out: aggregation (% of control), AUC of ThT fluorescence) [%] | remaining activity at 0.1 µM (R2R3 (N279K) tau peptide; R2R3 N279K 50 μM, compound 0.1 μM, read-out: aggregation (% of control), AUC of ThT fluorescence) [%] | remaining activity at 1 µM (R2R3 (N279K) tau peptide; R2R3 N279K 50 μM, compound 1 μM, read-out: aggregation (% of control), AUC of ThT fluorescence) [%] | remaining activity at 10 µM ([1]; further 24–30 h, read-out: fibril elongation, aggregation post-treatment as percentage of control (AUC after compound addition)) [%]
C/C=C(/C=O)[C@@H](CC=O)CC(=O)OCCc1ccc(O)cc1 [OLC, oleocanthal] | 8 | below 10% | marked reduction in ThT signal | 74 | 61 | complete aggregation suppression | marked reduction in ThT signal | 45.2 ± 3.2 | either a complete absence or a marked reduction in ThT signal |  |  |  |  | 
O=C1c2ccccc2C(=O)c2c(O)c(O)cc(O)c21 [PUR, purpurin] |  |  | marked reduction in ThT signal |  |  |  | marked reduction in ThT signal |  | either a complete absence or a marked reduction in ThT signal | 47 | < 10 | 44 | 19 | 15.5 ± 2.8
